Holding throughout (format): in vivo
Experiment [1] concerns Panelists. In words: MSG reduction with soy-based vegan chicken nugget: panel sensory rating. To be noted: Sample S1: 5 ppm TM1 in soy-based vegan chicken nugget, 1.68 wt % flavoring (chicken), 0.4 wt % MSG, 0.03 wt % purinic ribonucleotide, mean, scale of 0 to 10. Here is the method: (§1) A test sample and a comparative sample were prepared. The comparative (sample C) was a standard soy-based vegan chicken nugget having 1.68 wt % flavoring (chicken), 0.4 wt % MSG, and 0.03 wt % purinic ribonucleotide. The test sample contained flavoring, MSG, and purinic ribonucleotide in the same amounts as the comparative sample plus 5 ppm of TM1 (sample S1). Panelists were asked to rate the intensity of certain sensory features of the samples on a scale of 0 to 10. Higher numbers indicate greater intensity.

Experiment [2] concerns Panelists. Kind of experiment: Umami enhancement of MSG: panel sensory rating of aqueous sodium chloride/MSG samples. To be noted: mean, scale of 0 to 10; for Lasting Umami Intensity: Sample C 3.1; for Saltiness Intensity: Sample C 3.6; for Umami Intensity: Sample C 4.0. The protocol:
A series of test samples and a comparative sample were prepared. The comparative sample (C) contained 0.3 wt % sodium chloride and 0.05 wt % MSG. Two test samples were prepared. Each test sample contained sodium chloride and MSG in the same amounts as the comparative sample plus 2 ppm of TM1 (sample S1) or 5 ppm of TM1 (sample S2). Panelists were asked to rate the intensity of certain sensory features of the samples on a scale of 0 to 10. Higher numbers indicate greater intensity.

Experiment [3] has as its system Panelists. In words: Flavor modification of chicken broth: panel sensory rating. The following applies: 0.7 wt % sodium chloride, 0.04 wt % MSG, mean, scale of 0 to 10; for Lasting Umami Intensity: Sample C 3.1; for Umami Intensity: Sample C 4.3; for White Meat Intensity: Sample C 4.8; for Saltiness Intensity: Sample C 4.9; for Chicken Flavor Intensity: Sample C 5.3. The protocol:
A series of test samples and a comparative sample were prepared. The comparative sample (C) was a standard reconstituted chicken broth solution containing 0.7 wt % sodium chloride and 0.04 wt % MSG. Two test samples were prepared. Each test sample contained chicken broth, sodium chloride, and MSG in the same amounts as the comparative sample plus 3 ppm of TM1 (sample S1) or 5 ppm of TM1 (sample S2). Panelists were asked to rate the intensity of certain sensory features of the samples on a scale of 0 to 10. Higher numbers indicate greater intensity.

The test system of experiment [4] is Panelists. Kind of experiment: MSG reduction with potato crisp: panel sensory rating. The following applies: Sample S1: 5 ppm TM1 on potato crisp, 2 wt % flavoring (sour cream and onion), 0.03 wt % MSG, 0.008 wt % purinic ribonucleotide, mean, scale of 0 to 10. Here is the method:
as §1, with “potato crisp” for “soy-based vegan chicken nugget”, “2” for “1.68”, “(sour cream and onion), 0.03” for “(chicken), 0.4”, “0.008” for “0.03”, “ribonucleotide. This reflects a 75% reduction of the standard amount of MSG used in such products (0.12 wt %).” for “ribonucleotide.”

Where [5] appears, read: Sample S1: 2 ppm TM1 + 0.3 wt % sodium chloride + 0.05 wt % MSG.
[6] abbreviates: Sample S2: 5 ppm TM1 + 0.3 wt % sodium chloride + 0.05 wt % MSG, * significant vs C.
The mark [7] stands for this setting: Sample S1: 3 ppm TM1 in chicken broth, * significant vs C.
The mark [8] stands for this setting: Sample S2: 5 ppm TM1 in chicken broth, * significant vs C.
Where [9] appears, read: Sample S2: 5 ppm TM1 in chicken broth.
The mark [10] stands for this setting: Sample C 2.1, * significant vs C.

`C/C(=C\CO)C(=O)NCCCCNC(=O)/C=C/c1ccccc1` [TM1, (E)-N-(4-cinnamamidobutyl)-4-hydroxy-2-methylbut-2-enamide]: the “Saltiness Intensity” value in the experiment with Panelists [1] (Sample C 4.6) worked out at 4.4; in the experiment on Panelists [2] (setting [5]) it was 3.8; with Panelists [2] (Sample S2: 5 ppm TM1 + 0.3 wt % sodium chloride + 0.05 wt % MSG), 3.8; in the experiment with Panelists [3] (Sample S1: 3 ppm TM1 in chicken broth), 5.2; in the experiment with Panelists [3] (setting [9]), 4.8; with Panelists [4] (Sample C 2.9), 3.1. Besides, the “Umami Intensity” value in the experiment with Panelists [1] (Sample C 5.1, * significant vs C) is listed as 5.8*; in the experiment on Panelists [2] (setting [5]), 4.8; in the experiment with Panelists [2] (setting [6]), 6.0*; in the experiment on Panelists [3] (setting [7]) it was 5.8*; in the experiment on Panelists [3] (setting [8]) it was 6.2*; in the experiment on Panelists [4] (Sample C 3.0, * significant vs C), 3.6*. The “Lasting Umami Intensity” value in the experiment on Panelists [2] (Sample S1: 2 ppm TM1 + 0.3 wt % sodium chloride + 0.05 wt % MSG, * significant vs C) is on record as 4.2*; in the experiment with Panelists [2] (setting [6]) it was 5.4*; in the experiment with Panelists [3] (setting [7]), 4.2*; in the experiment on Panelists [3] (setting [8]), 5.4*; with Panelists [4] (setting [10]) it was 2.8*. The “White Meat Intensity” value is 5.8* in the experiment with Panelists [3] (setting [7]) and 4.8 in the experiment with Panelists [3] (setting [9]). For the same molecule, the “Chicken Flavor Intensity” value is given as 6.0* in the experiment with Panelists [3] (setting [7]) and 5.8 in the experiment on Panelists [3] (setting [9]). Also, the “Sour Intensity” value with Panelists [4] (setting [10]) is 2.9*.
